Consider 45 compounds from the Biogen ADME set (Fang et al. 2023).

For the data set the following is noted: for aqueous solubility: pH 6.8.

In brackets after ≈: the same amount, converted by molar mass.

A word on the aqueous solubility: it is the concentration that dissolves in the medium under given conditions. High values mean much dissolved substance, low ones little dissolved substance. As to `CC(C)(C)Sc1c(CC(C)(C)C(=O)O)n(Cc2ccc(Cl)cc2)c2ccc(OCc3ccc4ccccc4n3)cc12`, the MDR1-MDCK efflux ratio is 2.37; the intrinsic clearance, human liver microsomes turned out to be 28.7 mL/min/kg; the intrinsic clearance, rat liver microsomes was determined as 142 mL/min/kg; the aqueous solubility stood at 6.1 µg/mL (≈ 10.4 µM).
Consider `Fc1ccc(-c2nnc(CN3CCC(c4c[nH]c5ccccc45)CC3)o2)cc1`, for which the intrinsic clearance, human liver microsomes was 29.3 mL/min/kg; the intrinsic clearance, rat liver microsomes worked out at 230 mL/min/kg; the aqueous solubility turned out to be 8 µg/mL (≈ 21.3 µM).
On to `O=C(NCCCNC(=O)c1cc2ccccc2[nH]1)c1ccc2c(c1)OCCO2`, for which the MDR1-MDCK efflux ratio came out at 6.74; the intrinsic clearance, human liver microsomes was 19.3 mL/min/kg; the intrinsic clearance, rat liver microsomes turned out to be 283 mL/min/kg; the aqueous solubility worked out at 40.5 µg/mL (≈ 107 µM).
In the same order, the values of `NC(=O)C1(Cc2ccc(-c3cccnc3)cc2)CCN(Cc2cccc(Cl)c2)CC1` are 4.87, 183 mL/min/kg, 1360 mL/min/kg and 83.8 µg/mL (≈ 199 µM).
For the compound `Fc1ccc(F)c(-c2nc(C3CCOCC3)nn2-c2cccnc2)c1`, the MDR1-MDCK efflux ratio stood at 1.33; the intrinsic clearance, human liver microsomes is no more than 4.74 mL/min/kg; the intrinsic clearance, rat liver microsomes was found to be 72.8 mL/min/kg; the aqueous solubility is 35.1 µg/mL (≈ 103 µM).
`O=C(NCCNc1ncccc1C(F)(F)F)c1cnc2ccccn2c1=O`: the MDR1-MDCK efflux ratio was determined as 1.09; the intrinsic clearance, human liver microsomes is 27.8 mL/min/kg; the intrinsic clearance, rat liver microsomes amounted to 585 mL/min/kg; the aqueous solubility was 66.6 µg/mL (≈ 177 µM).
On to `CCCn1ncc2[nH]c(C3CCCCC3)nc21`, for which the MDR1-MDCK efflux ratio is 1.26; the intrinsic clearance, human liver microsomes was 19.9 mL/min/kg; the intrinsic clearance, rat liver microsomes is 83.7 mL/min/kg; the aqueous solubility turned out to be 22.4 µg/mL (≈ 96.5 µM).
In the same order, the values of `CCN(C(=O)CN1CCNC(=O)C1)c1ccc(F)cc1` are 49.4, no more than 4.74 mL/min/kg, no more than 10.7 mL/min/kg and 34.8 µg/mL (≈ 125 µM).
In turn, `Cc1cccc(OCCn2c(N)nc3ccccc32)c1` gave an intrinsic clearance, human liver microsomes of 4.93 mL/min/kg; an intrinsic clearance, rat liver microsomes of 2200 mL/min/kg; an aqueous solubility of 39.1 µg/mL (≈ 146 µM).
`Cc1nc(CNC(=O)c2ccc(F)c(C)c2)no1`: the intrinsic clearance, human liver microsomes was no more than 4.74 mL/min/kg and the intrinsic clearance, rat liver microsomes is no more than 10.7 mL/min/kg.
As for `COc1cc2c(cc1OC)CN(C(=O)C1CCCN(S(=O)(=O)c3cccs3)C1)CC2` (configuration not stated), the MDR1-MDCK efflux ratio came to 9.7; the intrinsic clearance, human liver microsomes came to 68.3 mL/min/kg; the intrinsic clearance, rat liver microsomes came out at 707 mL/min/kg; the aqueous solubility was 22.1 µg/mL (≈ 49 µM).
In the case of `Cc1ccc2c(c1)c1nc3ccccc3nc1n2CC(N)=O`, the MDR1-MDCK efflux ratio amounted to 0.833 and the aqueous solubility was determined as 0.16 µg/mL (≈ 0.551 µM).
Take `Clc1ccc(CSc2nc(-c3ccccc3)c[nH]2)cn1`: the MDR1-MDCK efflux ratio is 0.621; the intrinsic clearance, human liver microsomes worked out at 229 mL/min/kg; the intrinsic clearance, rat liver microsomes was 2880 mL/min/kg.
Consider `Cc1cc(Nc2ccccn2)cc(C2CCCN(CC(=O)Nc3ncc(C)s3)C2)n1` (configuration not stated), for which the MDR1-MDCK efflux ratio is 36.3; the intrinsic clearance, human liver microsomes turned out to be 59.6 mL/min/kg; the intrinsic clearance, rat liver microsomes worked out at 956 mL/min/kg; the aqueous solubility was 65.5 µg/mL (≈ 155 µM).
In the same order, the values of `Cc1ccc(C(=O)N2CCN(C(=O)NCC(=O)N3CCCC3)CC2)cc1F` are 60.6, no more than 4.74 mL/min/kg, 22.3 mL/min/kg and 75.6 µg/mL (≈ 201 µM).
Take `C=CC(=O)N1C[C@H](Nc2ncnc3[nH]ccc23)CC[C@@H]1C`: the MDR1-MDCK efflux ratio turned out to be 65.6; the fraction unbound, human plasma was 0.673; the fraction unbound, rat plasma came out at 0.557; the intrinsic clearance, human liver microsomes was no more than 4.74 mL/min/kg. This compound gave an intrinsic clearance, rat liver microsomes of 27.3 mL/min/kg and an aqueous solubility of 53.7 µg/mL (≈ 188 µM).
`c1ccc(CN2CCn3nccc3C2)cc1`: the MDR1-MDCK efflux ratio worked out at 0.584; the intrinsic clearance, human liver microsomes is no more than 4.74 mL/min/kg; the intrinsic clearance, rat liver microsomes was 31 mL/min/kg; the aqueous solubility is 15.3 µg/mL (≈ 71.7 µM).
On to `Cc1cc(N(C)CC(C)(C)O)ncc1Br`, for which the intrinsic clearance, human liver microsomes turned out to be 36.1 mL/min/kg and the intrinsic clearance, rat liver microsomes worked out at 970 mL/min/kg.
Regarding `COc1ccc(Cl)cc1-c1cccc(C(=O)NCCN2CCCC2=O)c1`, the MDR1-MDCK efflux ratio was determined as 6.01; the intrinsic clearance, human liver microsomes is 106 mL/min/kg; the intrinsic clearance, rat liver microsomes amounted to 875 mL/min/kg.
Take `CCc1ccc(CNc2nncs2)o1`: the MDR1-MDCK efflux ratio turned out to be 0.666; the intrinsic clearance, human liver microsomes worked out at 7.77 mL/min/kg; the intrinsic clearance, rat liver microsomes came out at 46.9 mL/min/kg.
`CS(=O)(=O)Nc1ccccc1-c1ccncc1`: the MDR1-MDCK efflux ratio is 1.27; the intrinsic clearance, human liver microsomes was no more than 4.74 mL/min/kg; the intrinsic clearance, rat liver microsomes is 100 mL/min/kg.
On the same counts, the results for `CCc1nc(CNc2ccc(C#N)nc2)cs1` are 0.556, no more than 4.74 mL/min/kg and 109 mL/min/kg.
In the same order, the values of `Cc1ccc2nc(CN(C)Cc3cccc(Cl)c3Cl)cc(=O)n2c1` are 0.617, 633 mL/min/kg and 4770 mL/min/kg.
Turning to `Cc1nnc(NC(=O)c2ccccc2-c2ccc(C(F)(F)F)cc2)s1`, the MDR1-MDCK efflux ratio came out at 1.45; the intrinsic clearance, human liver microsomes is 12.1 mL/min/kg; the intrinsic clearance, rat liver microsomes turned out to be 28.3 mL/min/kg; the aqueous solubility amounted to 1.35 µg/mL (≈ 3.72 µM).
In the same order, the values of `CC1(C)CCN(C(=O)NCCOc2cccnc2)C1` are 3.33, no more than 4.74 mL/min/kg, 47.9 mL/min/kg and 39.8 µg/mL (≈ 151 µM).
Consider `CCOC(=O)c1cccnc1-c1cccc2ccnn12`, for which the MDR1-MDCK efflux ratio is 0.687; the intrinsic clearance, human liver microsomes was no more than 4.74 mL/min/kg; the intrinsic clearance, rat liver microsomes was 80.1 mL/min/kg; the aqueous solubility turned out to be 45.8 µg/mL (≈ 171 µM).
`N#Cc1ccc(C(=O)N2CCCO2)nc1`: the MDR1-MDCK efflux ratio amounted to 0.487; the intrinsic clearance, human liver microsomes is 37.6 mL/min/kg; the intrinsic clearance, rat liver microsomes came to 1020 mL/min/kg.
Take `CN(C/C=C/C(=O)N1CCC[C@@H](n2nc(-c3ccc(Oc4ccccc4)cc3)c3c(N)ncnc32)C1)CCCCNC(=O)CCCC(=O)NCCCOCCOCCOCCCNC(=O)CCCC[C@@H]1SC[C@@H]2NC(=O)N[C@@H]21`: the intrinsic clearance, human liver microsomes was 127 mL/min/kg and the intrinsic clearance, rat liver microsomes is 87.3 mL/min/kg.
The compound `CC(C)(C)c1noc(COc2ccccc2C#N)n1` returned an aqueous solubility of 40.8 µg/mL (≈ 159 µM).
As to `CCCS(=O)(=O)NC1CCN(Cc2ccc(C)c(OC)c2)CC1`, the MDR1-MDCK efflux ratio was determined as 1.43; the intrinsic clearance, human liver microsomes stood at 16.5 mL/min/kg; the intrinsic clearance, rat liver microsomes stood at 798 mL/min/kg.
As to `CC(C)CC(=O)Nc1cccnc1N(C)C`, the MDR1-MDCK efflux ratio stood at 0.597; the intrinsic clearance, human liver microsomes is no more than 4.74 mL/min/kg; the intrinsic clearance, rat liver microsomes was found to be 57.9 mL/min/kg; the aqueous solubility was 30.3 µg/mL (≈ 137 µM).
Take `CCc1cc(N2CCOCC2)nc(C2CCN(C(=O)C3CC3)CC2)n1`: the MDR1-MDCK efflux ratio came out at 4.76; the intrinsic clearance, human liver microsomes came to 11.6 mL/min/kg; the intrinsic clearance, rat liver microsomes was found to be 278 mL/min/kg.
Regarding `OCCCCCn1cc(-c2ccccc2-c2ccco2)nn1`, the MDR1-MDCK efflux ratio was 1.08; the intrinsic clearance, human liver microsomes stood at 34 mL/min/kg; the intrinsic clearance, rat liver microsomes is 235 mL/min/kg; the aqueous solubility was found to be 11.1 µg/mL (≈ 37.3 µM).
For `COc1cc(CCNC2CCC3(CC2)OCCO3)ccc1F`, the MDR1-MDCK efflux ratio stood at 1; the intrinsic clearance, human liver microsomes came to 60.6 mL/min/kg; the intrinsic clearance, rat liver microsomes was 2240 mL/min/kg.
Consider `Cc1ccccc1OCCn1c(N)nc2ccccc21`, for which the MDR1-MDCK efflux ratio was 1.52; the intrinsic clearance, human liver microsomes amounted to 19.1 mL/min/kg; the intrinsic clearance, rat liver microsomes is 1760 mL/min/kg; the aqueous solubility was determined as 40.6 µg/mL (≈ 152 µM).
In the case of `Cc1ccc(NC(=O)CN2CCCN(c3ccc(C(F)(F)F)cn3)CC2)c(F)c1`, the MDR1-MDCK efflux ratio was 1.09; the intrinsic clearance, human liver microsomes was 141 mL/min/kg; the intrinsic clearance, rat liver microsomes is 643 mL/min/kg; the aqueous solubility was 24.6 µg/mL (≈ 59.9 µM).
In turn, `Clc1ccccc1C(c1ccccc1)(c1ccccc1)n1ccnc1` returned an aqueous solubility of 3.73 µg/mL (≈ 10.8 µM).
`Cc1ccc2oc(C(=O)N3CC[C@H](O)[C@@H](N4CCOCC4)CC3)cc2c1`: the MDR1-MDCK efflux ratio worked out at 2.46; the intrinsic clearance, human liver microsomes stood at 16.6 mL/min/kg; the intrinsic clearance, rat liver microsomes was determined as 1260 mL/min/kg.
For `Cn1cc(C2CCN(CC(=O)N3CCc4sccc4C3)CC2)cn1`, the MDR1-MDCK efflux ratio came to 2.76; the intrinsic clearance, human liver microsomes is no more than 4.74 mL/min/kg; the intrinsic clearance, rat liver microsomes was found to be 126 mL/min/kg; the aqueous solubility amounted to 62 µg/mL (≈ 180 µM).
On the same counts, the results for `COc1cccc(NC(=O)[C@H]2CCCN(S(=O)(=O)c3ccc(C)cc3)C2)c1` are 2.68, 38.1 mL/min/kg, 2820 mL/min/kg and 10 µg/mL (≈ 25.7 µM).
With `CN(CCc1ccccn1)C(=O)Nc1nncs1`, the MDR1-MDCK efflux ratio turned out to be 1.63; the intrinsic clearance, human liver microsomes is no more than 4.74 mL/min/kg; the intrinsic clearance, rat liver microsomes is no more than 10.7 mL/min/kg; the aqueous solubility amounted to 45.6 µg/mL (≈ 173 µM).
`O=C(Cc1cn2ccccc2n1)N1CCC(n2c(=O)[nH]c3ccccc32)CC1`: the MDR1-MDCK efflux ratio stood at 24.3; the intrinsic clearance, human liver microsomes is 33.8 mL/min/kg; the intrinsic clearance, rat liver microsomes amounted to 389 mL/min/kg.
Take `Cc1cc(NC(=O)c2ccc(NC3CC3)nc2)[nH]n1`: the intrinsic clearance, human liver microsomes is 6.42 mL/min/kg and the intrinsic clearance, rat liver microsomes worked out at 15.5 mL/min/kg.
Consider `CN(Cc1cnn(C)c1)c1ncnc2c1oc1ccccc12`, for which the MDR1-MDCK efflux ratio came to 0.969; the intrinsic clearance, human liver microsomes is 19.7 mL/min/kg; the intrinsic clearance, rat liver microsomes is 505 mL/min/kg; the aqueous solubility came to 42.5 µg/mL (≈ 145 µM).
In the same order, the values of `Oc1ccc(CN2CCN(c3cccc(Cl)c3)CC2)cc1` are 0.451, 33.6 mL/min/kg, 90 mL/min/kg and 2.2 µg/mL (≈ 7.27 µM).
